Measurements from PubChem BioAssay (NCI).
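Protocol summary: plate cells (96-well), add compound at 5 concentrations, incubate 48 h, interpolate endpoints linearly. GI50: concentration for 50% inhibition of growth. TGI is the concentration that stops growth completely.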

How the values were obtained:
Assay in all cases: DTP human tumour cell line panel, 48 h
EKVX NSCLC = test system: EKVX NSCLC
M19-MEL melanoma = test system: M19-MEL melanoma
SF-268 CNS = test system: SF-268 CNS
HL-60(TB) leukemia = test system: HL-60(TB) leukemia
KM20L2 colon = test system: KM20L2 colon
SF-539 CNS = test system: SF-539 CNS
T-47D breast = test system: T-47D breast
KM12 colon = test system: KM12 colon
DMS 114 small cell lung = test system: DMS 114 small cell lung
ACHN renal = test system: ACHN renal
CAKI-1 renal = test system: CAKI-1 renal
SNB-78 CNS = test system: SNB-78 CNS

SMILES	TGI (EKVX NSCLC)	TGI (M19-MEL melanoma)	TGI (SF-268 CNS)	TGI (HL-60(TB) leukemia)	TGI (KM20L2 colon)	TGI (SF-539 CNS)	TGI (T-47D breast)	TGI (KM12 colon)	TGI (DMS 114 small cell lung)	TGI (ACHN renal)	TGI (CAKI-1 renal)	TGI (SNB-78 CNS)	GI50 (EKVX NSCLC)	GI50 (SF-268 CNS)	GI50 (HL-60(TB) leukemia)	GI50 (SF-539 CNS)	GI50 (T-47D breast)	GI50 (KM12 colon)	GI50 (ACHN renal)	GI50 (CAKI-1 renal)
Nc1nc(N)c(CCCCc2ccccc2)c(N)n1	> 100 µM	> 100 µM	> 100 µM	> 100 µM	> 100 µM	> 100 µM	> 100 µM	> 100 µM	> 100 µM	> 100 µM	> 100 µM	–	–	–	–	–	–	–	–	–
CC1=C(C(=O)Nc2ccc(Cl)c(Cl)c2)C(c2ccc([N+](=O)[O-])cc2)C(C(=O)Nc2ccc(Cl)c(Cl)c2)=C(C)N1	15.4 µM	3.97 µM	14.8 µM	–	4.3 µM	12.1 µM	–	3.63 µM	9.66 µM	16.9 µM	16 µM	26.7 µM	–	–	–	–	–	–	–	–
Oc1c(-c2cc(C(F)(F)F)[nH]n2)cc(Cl)c(OCc2ccc(Cl)cc2)c1-c1ccc(Cl)c(C(F)(F)F)c1	5.56 µM	–	4.14 µM	3.12 µM	–	2.72 µM	1.53 µM	2.66 µM	–	4.86 µM	2.92 µM	–	0.795 µM	0.18 µM	0.677 µM	0.749 µM	0.147 µM	0.862 µM	0.593 µM	0.514 µM
O=Cc1ccc2c(c1I)OCO2	> 100 µM	> 100 µM	–	> 100 µM	> 100 µM	> 100 µM	–	> 100 µM	–	> 100 µM	> 100 µM	> 100 µM	–	–	–	–	–	–	–	–
ClC1=C(Cl)C(Cl)(Cl)c2c3c(c4c(c21)C(Cl)(Cl)C(Cl)=C4Cl)C(Cl)(Cl)C(Cl)=C3Cl	> 100 µM	–	> 100 µM	> 100 µM	> 100 µM	> 100 µM	–	> 100 µM	> 100 µM	> 100 µM	–	–	–	–	–	–	–	–	–	–
Cc1ccc(C2C3Cc4ccccc4C3=NN2c2ccc(S(=O)(=O)/N=c3\scc(-c4ccccc4)n3-c3ccccc3)cc2)cc1 (stereo not drawn)	65.7 µM	–	42 µM	31.5 µM	–	37.3 µM	> 100 µM	65.2 µM	–	50.3 µM	44.7 µM	–	21.5 µM	16.7 µM	14.5 µM	19.5 µM	35.5 µM	20.2 µM	21.6 µM	18.6 µM
NC1=NC(=O)C(CC(=O)Nc2ccc(Cl)cc2Cl)S1 (stereo not drawn)	> 100 µM	> 100 µM	> 100 µM	–	> 100 µM	> 100 µM	–	> 100 µM	–	> 100 µM	> 100 µM	> 100 µM	–	–	–	–	–	–	–	–
Cc1ccccc1-n1c(N)c(-c2nc3ccccc3[nH]2)sc1=S	88.5 µM	50.5 µM	69.6 µM	66.6 µM	–	41.1 µM	–	39.9 µM	59 µM	> 100 µM	71.4 µM	74.8 µM	–	–	–	–	–	–	–	–
O=C(NNS(=O)(=O)c1ccc(Cl)cc1Cl)c1cccnc1Nc1ccc(Cl)cc1	> 100 µM	–	> 100 µM	44.4 µM	–	44.5 µM	50.7 µM	28.6 µM	–	93.5 µM	58.7 µM	–	26.1 µM	36.5 µM	23.8 µM	19 µM	10.8 µM	13.8 µM	29.6 µM	19.8 µM
COc1cc2cc(Oc3ccc(NC(=O)c4ccc(Cl)c(Cl)c4)cc3)c(C)nc2cc1OC	> 100 µM	–	> 100 µM	> 100 µM	–	> 100 µM	> 100 µM	> 100 µM	–	> 100 µM	> 100 µM	–	6.8 µM	> 100 µM	> 100 µM	> 100 µM	3.28 µM	12.7 µM	8.63 µM	5.96 µM
COc1ccc2c(-c3ccnc(Nc4cccc(OC(F)(F)F)c4)n3)cnn2n1	> 25 µM	–	6.53 µM	> 25 µM	–	3.52 µM	6.56 µM	3.95 µM	–	> 25 µM	> 9.77 µM	–	2.87 µM	1.53 µM	1.07 µM	0.909 µM	1.71 µM	0.772 µM	1.8 µM	0.877 µM
Nc1n[nH]c2ccc([C@@H]3Nc4cc5c(cc4[C@H]4C6CCC(C6)[C@@H]34)C(=O)NC5)cc12 (stereo partly drawn)	> 100 µM	–	> 100 µM	–	–	0.814 µM	> 100 µM	> 100 µM	–	> 100 µM	> 100 µM	–	0.734 µM	1.04 µM	0.282 µM	0.258 µM	–	0.472 µM	0.726 µM	0.498 µM
O=C(O)CCNS(=O)(=O)c1ccc([N+](=O)[O-])cc1	> 100 µM	> 100 µM	> 100 µM	> 100 µM	> 100 µM	> 100 µM	–	> 100 µM	–	> 100 µM	> 100 µM	–	–	–	–	–	–	–	–	–
CCN1C(=O)N(CC)C2C1NN=c1s/c(=C\c3ccc(F)cc3)c(=O)n12 (stereo not drawn)	> 100 µM	–	> 100 µM	0.514 µM	–	0.527 µM	> 100 µM	> 100 µM	–	> 100 µM	> 100 µM	–	0.396 µM	0.807 µM	0.17 µM	0.158 µM	30.8 µM	0.0913 µM	0.336 µM	0.0722 µM
C[n+]1c2ccccc2nc2c(N)cc(N)cc21	> 100 µM	–	13.6 µM	35.8 µM	–	32.2 µM	40.9 µM	> 100 µM	–	> 100 µM	19 µM	–	8.04 µM	0.712 µM	6.39 µM	5.41 µM	3.95 µM	13.7 µM	45.6 µM	0.519 µM
C[C@@H]1Cc2cc(O)ccc2[C@H]2CC[C@]3(C)/C(=C/COCCN(C)C)CC[C@H]3[C@H]12 (tested in a mixture with another compound)	0.472 µM	–	0.235 µM	0.628 µM	–	0.339 µM	0.679 µM	0.895 µM	–	0.201 µM	0.578 µM	–	0.145 µM	0.111 µM	0.244 µM	0.176 µM	0.122 µM	0.309 µM	0.0429 µM	0.213 µM
